Key:
Assay in all cases: relative viability (nuclei count vs DMSO), 5 days (fraction); higher = more cells survive
VE-821 + Palbociclib = compound: CS(=O)(=O)c1ccc(-c2cnc(N)c(C(=O)Nc3ccccc3)n2)cc1 [VE-821] + CC(=O)c1c(C)c2cnc(Nc3ccc(N4CCNCC4)cn3)nc2n(C2CCCC2)c1=O [Palbociclib] (partner 0.5 µM)
In short: (§1)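 Lung cancer cell lines were pin-tool dosed in 1536-well plates on the day after seeding, with either a lone drug or a fixed anchor-drug dose plus five library-drug doses (not always all listed) in √10 steps. Nuclei were counted on 4× images after 5 days. Relative viability is the ratio of treated-well to vehicle-well nuclei counts, with each value a median of duplicate plates.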

VE-821 + Pictilisib = compound: CS(=O)(=O)c1ccc(-c2cnc(N)c(C(=O)Nc3ccccc3)n2)cc1 [VE-821] + CS(=O)(=O)N1CCN(Cc2cc3nc(-c4cccc5[nH]ncc45)nc(N4CCOCC4)c3s2)CC1 [Pictilisib] (partner 1 µM)
In short: as §1

Vismodegib + Lapatinib = compound: CS(=O)(=O)c1ccc(C(=O)Nc2ccc(Cl)c(-c3ccccn3)c2)c(Cl)c1 [Vismodegib] + CS(=O)(=O)CCNCc1ccc(-c2ccc3ncnc(Nc4ccc(OCc5cccc(F)c5)c(Cl)c4)c3c2)o1 [Lapatinib] (partner 2 µM)
In short: as §1

Vismodegib + Olaparib = compound: CS(=O)(=O)c1ccc(C(=O)Nc2ccc(Cl)c(-c3ccccn3)c2)c(Cl)c1 [Vismodegib] + O=C(c1cc(Cc2n[nH]c(=O)c3ccccc23)ccc1F)N1CCN(C(=O)C2CC2)CC1 [Olaparib] (partner 8 µM)
In short: as §1

Cell Line: LXF-289
- relative viability (VE-821 + Palbociclib; first compound 0.08 µM): 0.583
- relative viability (VE-821 + Palbociclib; first compound 0.253 µM): 0.606
- relative viability (VE-821 + Palbociclib; first compound 0.8 µM): 0.716
- relative viability (VE-821 + Palbociclib; first compound 2.53 µM): 0.677
- relative viability (VE-821 + Palbociclib; first compound 8 µM): 0.712
- relative viability (VE-821 + Pictilisib; first compound 0.08 µM): 0.969
- relative viability (VE-821 + Pictilisib; first compound 0.253 µM): 0.754
- relative viability (VE-821 + Pictilisib; first compound 0.8 µM): 0.796
- relative viability (VE-821 + Pictilisib; first compound 2.53 µM): 0.869
- relative viability (VE-821 + Pictilisib; first compound 8 µM): 0.808
- relative viability (Vismodegib + Lapatinib; first compound 0.08 µM): 0.912
- relative viability (Vismodegib + Lapatinib; first compound 0.253 µM): 0.894
- relative viability (Vismodegib + Lapatinib; first compound 0.8 µM): 0.916
- relative viability (Vismodegib + Lapatinib; first compound 2.53 µM): 0.962
- relative viability (Vismodegib + Lapatinib; first compound 8 µM): 0.875
- relative viability (Vismodegib + Olaparib; first compound 0.08 µM): 1.05
- relative viability (Vismodegib + Olaparib; first compound 0.253 µM): 1.01
- relative viability (Vismodegib + Olaparib; first compound 0.8 µM): 1.11
- relative viability (Vismodegib + Olaparib; first compound 2.53 µM): 1.02
- relative viability (Vismodegib + Olaparib; first compound 8 µM): 0.94

Cell Line: NCI-H1793
- relative viability (VE-821 + Palbociclib; first compound 0.08 µM): 0.361
- relative viability (VE-821 + Palbociclib; first compound 0.253 µM): 0.32
- relative viability (VE-821 + Palbociclib; first compound 2.53 µM): 0.447
- relative viability (VE-821 + Palbociclib; first compound 8 µM): 0.333
- relative viability (VE-821 + Pictilisib; first compound 0.08 µM): 0.356
- relative viability (VE-821 + Pictilisib; first compound 0.253 µM): 0.312
- relative viability (VE-821 + Pictilisib; first compound 0.8 µM): 0.273
- relative viability (VE-821 + Pictilisib; first compound 2.53 µM): 0.431
- relative viability (VE-821 + Pictilisib; first compound 8 µM): 0.425
- relative viability (Vismodegib + Lapatinib; first compound 0.253 µM): 0.667
- relative viability (Vismodegib + Lapatinib; first compound 0.8 µM): 0.658
- relative viability (Vismodegib + Lapatinib; first compound 2.53 µM): 0.671
- relative viability (Vismodegib + Lapatinib; first compound 8 µM): 0.676
- relative viability (Vismodegib + Olaparib; first compound 0.253 µM): 0.907
- relative viability (Vismodegib + Olaparib; first compound 0.8 µM): 1.11
- relative viability (Vismodegib + Olaparib; first compound 2.53 µM): 0.917
- relative viability (Vismodegib + Olaparib; first compound 8 µM): 0.884

Cell Line: NCI-H650
- relative viability (VE-821 + Palbociclib; first compound 0.08 µM): 0.365
- relative viability (VE-821 + Palbociclib; first compound 0.253 µM): 0.341
- relative viability (VE-821 + Palbociclib; first compound 0.8 µM): 0.331
- relative viability (VE-821 + Palbociclib; first compound 2.53 µM): 0.438
- relative viability (VE-821 + Palbociclib; first compound 8 µM): 0.352
- relative viability (VE-821 + Pictilisib; first compound 0.08 µM): 0.882
- relative viability (VE-821 + Pictilisib; first compound 0.253 µM): 0.927
- relative viability (VE-821 + Pictilisib; first compound 0.8 µM): 0.731
- relative viability (VE-821 + Pictilisib; first compound 2.53 µM): 0.985
- relative viability (VE-821 + Pictilisib; first compound 8 µM): 0.88
- relative viability (Vismodegib + Lapatinib; first compound 0.08 µM): 0.967
- relative viability (Vismodegib + Lapatinib; first compound 0.253 µM): 0.695
- relative viability (Vismodegib + Lapatinib; first compound 0.8 µM): 0.623
- relative viability (Vismodegib + Lapatinib; first compound 2.53 µM): 0.841
- relative viability (Vismodegib + Lapatinib; first compound 8 µM): 0.899
- relative viability (Vismodegib + Olaparib; first compound 0.08 µM): 0.385
- relative viability (Vismodegib + Olaparib; first compound 0.253 µM): 0.385
- relative viability (Vismodegib + Olaparib; first compound 0.8 µM): 0.396
- relative viability (Vismodegib + Olaparib; first compound 2.53 µM): 0.316
- relative viability (Vismodegib + Olaparib; first compound 8 µM): 0.387

Cell Line: NCI-H647
- relative viability (VE-821 + Palbociclib; first compound 0.08 µM): 0.385
- relative viability (VE-821 + Palbociclib; first compound 0.253 µM): 0.297
- relative viability (VE-821 + Palbociclib; first compound 0.8 µM): 0.349
- relative viability (VE-821 + Palbociclib; first compound 2.53 µM): 0.371
- relative viability (VE-821 + Palbociclib; first compound 8 µM): 0.15
- relative viability (VE-821 + Pictilisib; first compound 0.08 µM): 0.472
- relative viability (VE-821 + Pictilisib; first compound 0.253 µM): 0.391
- relative viability (VE-821 + Pictilisib; first compound 2.53 µM): 0.428
- relative viability (VE-821 + Pictilisib; first compound 8 µM): 0.263
- relative viability (Vismodegib + Lapatinib; first compound 0.08 µM): 0.99
- relative viability (Vismodegib + Lapatinib; first compound 0.253 µM): 0.998
- relative viability (Vismodegib + Lapatinib; first compound 0.8 µM): 1.17
- relative viability (Vismodegib + Lapatinib; first compound 2.53 µM): 1.01
- relative viability (Vismodegib + Lapatinib; first compound 8 µM): 1.12
- relative viability (Vismodegib + Olaparib; first compound 0.08 µM): 0.66
- relative viability (Vismodegib + Olaparib; first compound 0.253 µM): 0.508
- relative viability (Vismodegib + Olaparib; first compound 0.8 µM): 0.669
- relative viability (Vismodegib + Olaparib; first compound 2.53 µM): 0.368
- relative viability (Vismodegib + Olaparib; first compound 8 µM): 0.479

Cell Line: NCI-H3122
- relative viability (VE-821 + Palbociclib; first compound 0.08 µM): 0.196
- relative viability (VE-821 + Palbociclib; first compound 0.253 µM): 0.187
- relative viability (VE-821 + Palbociclib; first compound 0.8 µM): 0.166
- relative viability (VE-821 + Palbociclib; first compound 2.53 µM): 0.225
- relative viability (VE-821 + Palbociclib; first compound 8 µM): 0.227
- relative viability (VE-821 + Pictilisib; first compound 0.08 µM): 0.666
- relative viability (VE-821 + Pictilisib; first compound 0.253 µM): 0.672
- relative viability (VE-821 + Pictilisib; first compound 0.8 µM): 0.563
- relative viability (VE-821 + Pictilisib; first compound 2.53 µM): 0.765
- relative viability (VE-821 + Pictilisib; first compound 8 µM): 0.78
- relative viability (Vismodegib + Lapatinib; first compound 0.08 µM): 0.987
- relative viability (Vismodegib + Lapatinib; first compound 0.253 µM): 1.06
- relative viability (Vismodegib + Lapatinib; first compound 0.8 µM): 0.982
- relative viability (Vismodegib + Lapatinib; first compound 2.53 µM): 0.897
- relative viability (Vismodegib + Lapatinib; first compound 8 µM): 0.936
- relative viability (Vismodegib + Olaparib; first compound 0.08 µM): 0.613
- relative viability (Vismodegib + Olaparib; first compound 0.253 µM): 0.598
- relative viability (Vismodegib + Olaparib; first compound 0.8 µM): 0.614
- relative viability (Vismodegib + Olaparib; first compound 2.53 µM): 0.664
- relative viability (Vismodegib + Olaparib; first compound 8 µM): 0.65
